Measured values as given in patent publication US20170197979A1, “BENZOTHIADIAZOLAMINES” (BAYER PHARMA AKTIENGESELLSCHAFT, priority 2014, published 2017).

Biological target: T1, human full-length MKNK1 (Homo sapiens, UniProt Q9BUB5, T385D)
T1 construct: GST (N); purchased Carna Biosciences 02-145; host or cells: insect cells (baculovirus expression system)
Experiment: MKNK1 kinase high ATP assay (TR-FRET)
Format: biochemical
Details: TR-FRET, high ATP (2 mM final), 15 min preincubation with enzyme, GST-MKNK1 (T344D); read-out: MKNK1 IC50
Method: MKNK1 Kinase High ATP Assay
MKNK1-inhibitory activity at high ATP of compounds of the present invention after their preincubation with MKNK1 was quantified employing the TR-FRET-based MKNK1 high ATP assay as described in the following paragraphs.
A recombinant fusion protein of Glutathione-S-Transferase (GST, N-terminally) and human full-length MKNK1 (amino acids 1-424 and T344D of accession number BAA 19885.1), expressed in insect cells using baculovirus expression system and purified via glutathione sepharose affinity chromatography, was purchased from Carna Biosciences (product no 02-145) and used as enzyme. As substrate for the kinase reaction the biotinylated peptide biotin-Ahx-IKKRKLTRRKSLKG (C-terminus in amide form) was used, which can be purchased e.g. from the company Biosyntan (Berlin-Buch, Germany).
For the assay 50 nL of a 100 fold concentrated solution of the test compound in DMSO was pipetted into a black low volume 384 well microtiter plate (Greiner Bio-One, Frickenhausen, Germany), 2 μL of a solution of MKNK1 in aqueous assay buffer [50 mM HEPES pH 7.5, 5 mM MgCl2, 1.0 mM dithiothreitol, 0.005% (v/v) Nonidet-P40 (Sigma)] was added and the mixture was incubated for 15 min at 22° C. to allow pre-binding of the test compounds to the enzyme before the start of the kinase reaction. Then the kinase reaction was started by the addition of 3 μL of a solution of adenosine-tri-phosphate (ATP, 3.3 mM=>final conc. in the 5 μL assay volume is 2 mM) and substrate (0.1 μM=>final conc. in the 5 μL assay volume is 0.06 μM) in assay buffer and the resulting mixture was incubated for a reaction time of 30 min at 22° C. The concentration of MKNK1 was adjusted depending of the activity of the enzyme lot and was chosen appropriate to have the assay in the linear range, typical concentrations were in the range of 0.003 μg/mL. The reaction was stopped by the addition of 5 μL of a solution of TR-FRET detection reagents (5 nM streptavidine-XL665 [Cisbio Bioassays, Codolet, France] and 1 nM anti-ribosomal protein S6 (pSer236)-antibody from Invitrogen [#44921G] and 1 nM LANCE EU-W1024 labeled ProteinG [Perkin-Elmer, product no. AD0071]) in an aqueous EDTA-solution (100 mM EDTA, 0.1% (w/v) bovine serum albumin in 50 mM HEPES pH 7.5).
The resulting mixture was incubated for 1 h at 22° C. to allow the formation of complex between the phosphorylated biotinylated peptide and the detection reagents. Subsequently the amount of phosphorylated substrate was evaluated by measurement of the resonance energy transfer from the Eu-chelate to the streptavidine-XL. Therefore, the fluorescence emissions at 620 nm and 665 nm after excitation at 350 nm were measured in a TR-FRET reader, e.g. a Rubystar (BMG Labtechnologies, Offenburg, Germany) or a Viewlux (Perkin-Elmer). The ratio of the emissions at 665 nm and at […] was taken as the measure for the amount of phosphorylated substrate. The data were normalised (enzyme reaction without inhibitor=0% inhibition, all other assay components but no enzyme=100% inhibition).

T1 sequence (Q9BUB5 1-424 isoform Q9BUB5-2 T344D): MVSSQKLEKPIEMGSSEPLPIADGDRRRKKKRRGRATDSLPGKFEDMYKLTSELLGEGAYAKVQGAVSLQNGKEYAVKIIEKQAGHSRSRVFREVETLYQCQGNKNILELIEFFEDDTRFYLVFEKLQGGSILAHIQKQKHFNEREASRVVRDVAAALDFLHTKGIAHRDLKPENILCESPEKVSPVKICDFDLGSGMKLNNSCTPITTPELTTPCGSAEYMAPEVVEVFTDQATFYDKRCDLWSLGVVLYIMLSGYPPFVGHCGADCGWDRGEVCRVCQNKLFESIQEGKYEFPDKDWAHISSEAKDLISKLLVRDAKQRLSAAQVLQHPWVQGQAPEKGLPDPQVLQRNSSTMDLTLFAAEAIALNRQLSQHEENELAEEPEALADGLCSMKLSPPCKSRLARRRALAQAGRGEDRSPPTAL

Structure (SMILES) | IC50 [nM]
CN(CCN)C(=O)[C@H]1CCc2c(sc3ncnc(Nc4ccc5nnsc5c4)c23)C1 [Example 25, (7S)—N-(2-Aminoethyl)-4-(1,2,3-benzothiadiazol-6-ylamino)-N-methyl-5,6,7,8-tetrahydro[1]benzothieno[2,3-d]pyrimidine-7-carboxamide] | 3.2
CN(CC(C)(C)O)C(=O)[C@H]1CCc2c(sc3ncnc(Nc4ccc5nnsc5c4)c23)C1 [Example 27, (7S)-4-(1,2,3-Benzothiadiazol-6-ylamino)-N-(2-hydroxy-2-methylpropyl)-N-methyl-5,6,7,8-tetrahydro[1]benzothieno[2,3-d]pyrimidine-7-carboxamide] | 15
CN(C)C(=O)CN(C)C(=O)[C@H]1CCc2c(sc3ncnc(Nc4ccc5nnsc5c4)c23)C1 [Example 29, (7S)-4-(1,2,3-Benzothiadiazol-6-ylamino)-N-[2-(dimethylamino)-2-oxoethyl]-N-methyl-5,6,7,8-tetrahydro[1]benzothieno[2,3-d]pyrimidine-7-carboxamide] | 7
CN(C)CCCN(C)C(=O)[C@H]1CCc2c(sc3ncnc(Nc4ccc5nnsc5c4)c23)C1 [Example 30, (7S)-4-(1,2,3-Benzothiadiazol-6-ylamino)-N-[3-(dimethylamino)propyl]-N-methyl-5,6,7,8-tetrahydro[1]benzothieno[2,3-d]pyrimidine-7-carboxamide] | 8.1
O=C([C@H]1CCc2c(sc3ncnc(Nc4ccc5nnsc5c4)c23)C1)N1CC(F)(F)C1 [Example 31, [(7S)-4-(1,2,3-Benzothiadiazol-6-ylamino)-5,6,7,8-tetrahydro[1]benzothieno[2,3-d]pyrimidin-7-yl](3,3-difluoroazetidin-1-yl)methanone] | 14
O=C([C@H]1CCc2c(sc3ncnc(Nc4ccc5nnsc5c4)c23)C1)N1CC(O)C1 [Example 32, [(7S)-4-(1,2,3-Benzothiadiazol-6-ylamino)-5,6,7,8-tetrahydro[1]benzothieno[2,3-d]pyrimidin-7-yl](3-hydroxyazetidin-1-yl)methanone] | 33
CN1CCN(C(=O)[C@H]2CCc3c(sc4ncnc(Nc5ccc6nnsc6c5)c34)C2)CC1 [Example 34, [(7S)-4-(1,2,3-Benzothiadiazol-6-ylamino)-5,6,7,8-tetrahydro[1]benzothieno[2,3-d]pyrimidin-7-yl](4-methylpiperazin-1-yl)methanone] | 13
COc1cc2nnsc2cc1Nc1ncnc2sc3c(c12)CC[C@H](C(=O)N(C)C)C3 [Example 35, (7S)-4-[(5-Methoxy-1,2,3-benzothiadiazol-6-yl)amino]-N,N-dimethyl-5,6,7,8-tetrahydro[1]benzothieno[2,3-d]pyrimidine-7-carboxamide] | 1.3
CCN(CCO)C(=O)[C@H]1CCc2c(sc3ncnc(Nc4cc5snnc5cc4OC)c23)C1 [Example 38, (7S)—N-Ethyl-N-(2-hydroxyethyl)-4-[(5-methoxy-1,2,3-benzothiadiazol-6-yl)amino]-5,6,7,8-tetrahydro[1]benzothieno[2,3-d]pyrimidine-7-carboxamide] | 1.1
COCCN(C)C(=O)[C@H]1CCc2c(sc3ncnc(Nc4cc5snnc5cc4OC)c23)C1 [Example 39, (7S)-4-[(5-Methoxy-1,2,3-benzothiadiazol-6-yl)amino]-N-(2-methoxyethyl)-N-methyl-5,6,7,8-tetrahydro[1]benzothieno[2,3-d]pyrimidine-7-carboxamide] | 0.6
COc1cc2nnsc2cc1Nc1ncnc2sc3c(c12)CC[C@H](C(=O)N(C)CCNC(=O)OC(C)(C)C)C3 [Example 40, tert-Butyl {2-[({(7S)-4-[(5-methoxy-1,2,3-benzothiadiazol-6-yl)amino]-5,6,7,8-tetrahydro[1]benzothieno[2,3-d]pyrimidin-7-yl}carbonyl)(methyl)amino]ethyl}carbamate] | 0.8
COc1cc2nnsc2cc1Nc1ncnc2sc3c(c12)CC[C@H](C(=O)N(C)CC(=O)N(C)C)C3 [Example 42, (7S)—N-[2-(Dimethylamino)-2-oxoethyl]-4-[(5-methoxy-1,2,3-benzothiadiazol-6-yl)amino]-N-methyl-5,6,7,8-tetrahydro[1]benzothieno[2,3-d]pyrimidine-7-carboxamide] | 0.8
COc1cc2nnsc2cc1Nc1ncnc2sc3c(c12)CC[C@H](C(=O)N(C)CCCN(C)C)C3 [Example 43, (7S)—N-[3-(Dimethylamino)propyl]-4-[(5-methoxy-1,2,3-benzothiadiazol-6-yl)amino]-N-methyl-5,6,7,8-tetrahydro[1]benzothieno[2,3-d]pyrimidine-7-carboxamide] | 1.7
COc1cc2nnsc2cc1Nc1ncnc2sc3c(c12)CC[C@H](C(=O)N1CC(C#N)C1)C3 [Example 44, 1-({(7S)-4-[(5-Methoxy-1,2,3-benzothiadiazol-6-yl)amino]-5,6,7,8-tetrahydro[1]benzothieno[2,3-d]pyrimidin-7-yl}carbonyl)azetidine-3-carbonitrile] | 1.7
COc1cc2nnsc2cc1Nc1ncnc2sc3c(c12)CC[C@H](C(=O)N1CC(C)(O)C1)C3 [Example 45, (3-Hydroxy-3-methylazetidin-1-yl){(7S)-4-[(5-methoxy-1,2,3-benzothiadiazol-6-yl)amino]-5,6,7,8-tetrahydro[1]benzothieno[2,3-d]pyrimidin-7-yl}methanone] | 1.5

Continued by falling IC50, values first:

IC50 [nM] | Structure (SMILES)
41 | CC(C)N(C)C(=O)[C@H]1CCc2c(sc3ncnc(Nc4ccc5nnsc5c4)c23)C1 [Example 23, (7S)-4-(1,2,3-Benzothiadiazol-6-ylamino)-N-methyl-N-(propan-2-yl)-5,6,7,8-tetrahydro[1]benzothieno[2,3-d]pyrimidine-7-carboxamide]
33 | O=C([C@H]1CCc2c(sc3ncnc(Nc4ccc5nnsc5c4)c23)C1)N1CCC1 [Example 24, Azetidin-1-yl[(7S)-4-(1,2,3-benzothiadiazol-6-ylamino)-5,6,7,8-tetrahydro[1]benzothieno[2,3-d]pyrimidin-7-yl]methanone]
11 | CN(CC(F)F)C(=O)[C@H]1CCc2c(sc3ncnc(Nc4ccc5nnsc5c4)c23)C1 [Example 26, (7S)-4-(1,2,3-Benzothiadiazol-6-ylamino)-N-(2,2-difluoroethyl)-N-methyl-5,6,7,8-tetrahydro[1]benzothieno[2,3-d]pyrimidine-7-carboxamide]
8.6 | CCN(CCO)C(=O)[C@H]1CCc2c(sc3ncnc(Nc4ccc5nnsc5c4)c23)C1 [Example 28, (7S)-4-(1,2,3-Benzothiadiazol-6-ylamino)-N-ethyl-N-(2-hydroxyethyl)-5,6,7,8-tetrahydro[1]benzothieno[2,3-d]pyrimidine-7-carboxamide]
8 | CC1(O)CN(C(=O)[C@H]2CCc3c(sc4ncnc(Nc5ccc6nnsc6c5)c34)C2)C1 [Example 33, [(7S)-4-(1,2,3-Benzothiadiazol-6-ylamino)-5,6,7,8-tetrahydro[1]benzothieno[2,3-d]pyrimidin-7-yl](3-hydroxy-3-methylazetidin-1-yl)methanone]
1.2 | COc1cc2nnsc2cc1Nc1ncnc2sc3c(c12)CC[C@H](C(=O)N(C)C(C)C)C3 [Example 37, (7S)-4-[(5-Methoxy-1,2,3-benzothiadiazol-6-yl)amino]-N-methyl-N-(propan-2-yl)-5,6,7,8-tetrahydro[1]benzothieno[2,3-d]pyrimidine-7-carboxamide]
0.8 | COc1cc2nnsc2cc1Nc1ncnc2sc3c(c12)CC[C@H](C(=O)N(C)CC(C)(C)O)C3 [Example 36, (7S)—N-(2-Hydroxy-2-methylpropyl)-4-[(5-methoxy-1,2,3-benzothiadiazol-6-yl)amino]-N-methyl-5,6,7,8-tetrahydro[1]benzothieno[2,3-d]pyrimidine-7-carboxamide]
0.6 | COc1cc2nnsc2cc1Nc1ncnc2sc3c(c12)CC[C@H](C(=O)N1CC(N(C)C)C1)C3 [Example 41, [3-(Dimethylamino)azetidin-1-yl]{(7S)-4-[(5-methoxy-1,2,3-benzothiadiazol-6-yl)amino]-5,6,7,8-tetrahydro[1]benzothieno[2,3-d]pyrimidin-7-yl}methanone]
